From US11000601B2, “Conjugated biological molecules, pharmaceutical compositions and methods” (OBI Pharma, Inc., priority 2016, dated 2021)
“And” between values parts separate entries of the source, which are not always exact repeats. Equal entries are not always repeated. Marks after values point to notes of the source that are not given here. Square brackets hold non-standard residues; d marks the D form. Peptide text beside a SMILES is read from it. * marks the point of attachment. Dolaproine = CO[C@@H]([C@@H]1CCCN1)[C@@H](C)C(=O)O; Dil = CC[C@H](C)[C@H](NC)[C@@H](CC(=O)O)OC; X1 = C[C@@H](N*)[C@@H](O)c1ccccc1; NMeV = CN[C@H](C(=O)O)C(C)C

System: NCI-N87 (ATCC CRL-5822) human gastric carcinoma
Experiment: Xenograft tumor model of human gastric carcinoma NCI-N87 in female nu/nu mice: tumor volume, T/C, TGI
Format: in vivo, mouse
Conditions: for Tumor Volume (mm^3), individual animals / Tumor Volume, individual animal / Tumor Volume, individual mouse: 0.191 mg/kg; for Tumor Volume, individual mouse: individual animals
Description: In a xenograft tumor model of human gastric carcinoma, viable NCI-N87 (ATCC CRL-5822) cells were subcutaneously (SC) implanted (2.5×10^6 cells/mL with matrigel (1:1) at 0.2 mL/mouse) into the right flank of female nu/nu mice. Tumor implanted mice were divided into seven treatment groups, each group containing eight animals, and one group containing five animals, and dose administrations were initiated one day after cell implantation (denoted as Day 1).
Viable human gastric carcinoma NCI-N87 (ATCC CRL-5822) cell line was purchased and cultured in Eurofins Panlabs Taiwan, Ltd. The cells were cultured in RPMI-1640 medium containing 10% fetal bovine serum (FBS) at 37° C. in 5% CO2 incubator and implanted subcutaneously in the right flank of each mouse.
Female nude (nu/nu) mice aged 5-6 weeks obtained from BioLasco Taiwan (under Charles River Laboratories Licensee) were used. The animals were housed in individually ventilated cages (IVC, 36 Mini Isolator system). The allocation for 3 animals was 27×20×14 in cm. All animals were maintained in a hygienic environment under controlled temperature (20-24° C.) and humidity (30%-70%) with 12-hour light/dark cycle. Free access to standard lab diet [MFG (Oriental Yeast Co., Ltd., Japan)] and autoclaved tap water in bottles were granted. All aspects of this work including housing, experimentation, and animal disposal were performed in general accordance with the “Guide for the Care and Use of Laboratory Animals: Eighth Edition” (National Academies Press, Washington, D.C., 2011) in our AAALAC-accredited laboratory animal facility. In addition, the animal care and use protocol was reviewed and approved by the IACUC at Eurofins Panlabs Taiwan, Ltd.
The tumor volumes, body weights, mortality, and signs of overt toxicity were monitored and recorded twice weekly for 100 days. Tumor growth inhibition was calculated as T/C (treatment/control)×100%. A T/C value≤42% compared to that of the vehicle control group was considered significant anti-tumor activity. Two-way ANOVA followed by Bonferroni test was used to ascertain the statistically significant significance of groups compared to respective vehicle control (*p<0.05).

[1] = Day 1, 0.191 mg/kg × 4 IP once weekly
[2] = Day 4, 0.191 mg/kg × 4 IP once weekly
[3] = Day 8, 0.191 mg/kg × 4 IP once weekly
[4] = Day 11, 0.191 mg/kg × 4 IP once weekly
[5] = Day 15, 0.191 mg/kg × 4 IP once weekly
[6] = Day 18, 0.191 mg/kg × 4 IP once weekly
[7] = Day 22, 0.191 mg/kg × 4 IP once weekly
[8] = Day 25, 0.191 mg/kg × 4 IP once weekly
[9] = Day 29, 0.191 mg/kg × 4 IP once weekly
[10] = Day 32, 0.191 mg/kg × 4 IP once weekly
[11] = Day 36, 0.191 mg/kg × 4 IP once weekly
[12] = Day 39, 0.191 mg/kg × 4 IP once weekly
[13] = Day 43, 0.191 mg/kg × 4 IP once weekly
[14] = Day 46, 0.191 mg/kg × 4 IP once weekly
[15] = Day 50, 0.191 mg/kg × 4 IP once weekly
[16] = Day 53, 0.191 mg/kg × 4 IP once weekly

CC[C@H](C)[C@@H]([C@@H](CC(=O)N1CCC[C@H]1[C@H](OC)[C@@H](C)C(=O)N[C@H](C)[C@@H](O)c1ccccc1)OC)N(C)C(=O)[C@@H](NC(=O)[C@@H](NC)C(C)C)C(C)C [MMAE, monomethyl auristatin E] (H-[NMeV]V[Dil][Dolaproine]-X1)
maximum percent TGI (0.191 mg/kg IP once weekly for four weeks, Day 53): 53%
anti-tumor activity (in words) (0.191 mg/kg IP once weekly for four weeks, over the course of the study): moderate anti-tumor activity
Tumor Volume (mm^3), Mean [1]: 96 mm^3
Tumor Volume (mm^3), individual animals [1]: 61 mm^3 and 89 mm^3 and 83 mm^3 and 88 mm^3 (2×) and 125 mm^3 and 110 mm^3 and 121 mm^3
% T/C [2]: 88%
% TGI [2]: 12%
Tumor Volume (mm^3), Mean [2]: 109 mm^3
Tumor Volume (mm^3), individual animals [2]: 106 mm^3 and 102 mm^3 and 115 mm^3 (3×) and 104 mm^3 and 109 mm^3
% T/C [3]: 83%
% TGI [3]: 17%
Tumor Volume (mm^3), Mean [3]: 122 mm^3
Tumor Volume (mm^3), individual animals [3]: 117 mm^3 and 142 mm^3 and 127 mm^3 and 115 mm^3 and 110 mm^3 and 125 mm^3 and 119 mm^3
% T/C [4]: 59%
% TGI [4]: 41%
Tumor Volume (mm^3), Mean [4]: 165 mm^3
Tumor Volume (mm^3), individual animals [4]: 162 mm^3 and 158 mm^3 and 137 mm^3 and 169 mm^3 and 174 mm^3 and 187 mm^3 and 166 mm^3
% T/C [5]: 60%
% TGI [5]: 40%
Tumor Volume (mm^3), Mean [5]: 189 mm^3
Tumor Volume (mm^3), individual animals [5]: 153 mm^3 and 189 mm^3 (2×) and 178 mm^3 and 231 mm^3 and 175 mm^3 and 208 mm^3
% T/C [6]: 57%
% TGI [6]: 43%
Tumor Volume (mm^3), Mean [6]: 218 mm^3
Tumor Volume (mm^3), individual animals [6]: 152 mm^3 and 213 mm^3 and 234 mm^3 and 255 mm^3 and 231 mm^3 and 228 mm^3 and 211 mm^3
% T/C [7]: 54%
% TGI [7]: 46%
Tumor Volume (mm^3), Mean [7]: 252 mm^3
Tumor Volume (mm^3), individual animals [7]: 144 mm^3 and 201 mm^3 and 246 mm^3 and 303 mm^3 and 252 mm^3 and 322 mm^3 and 296 mm^3
% T/C [8]: 53%
% TGI [8]: 47%
Tumor Volume (mm^3), Mean [8]: 277 mm^3
Tumor Volume (mm^3), individual animals [8]: 146 mm^3 and 216 mm^3 and 259 mm^3 and 356 mm^3 and 315 mm^3 and 353 mm^3 and 296 mm^3
% T/C [9]: 59%
% TGI [9]: 41%
Tumor Volume, Mean [9]: 371* mm^3
Tumor Volume, individual animal [9]: 162 mm^3 and 277 mm^3 and 399 mm^3 and 406 mm^3 and 439 mm^3 and died and 525 mm^3 and 387 mm^3
% T/C [10]: 54%
% TGI [10]: 46%
Tumor Volume, Mean [10]: 389* mm^3
Tumor Volume, individual animal [10]: 160 mm^3 and 318 mm^3 and 397 mm^3 and 385 mm^3 and 446 mm^3 and died and 584 mm^3 and 432 mm^3
% T/C [11]: 50%
% TGI [11]: 50%
Tumor Volume, Mean [11]: 406* mm^3
Tumor Volume, individual animal [11]: 94 mm^3 and 345 mm^3 and 390 mm^3 and 389 mm^3 and 506 mm^3 and died and 658 mm^3 and 459 mm^3
% T/C [12]: 47%
% TGI [12]: 53%
Tumor Volume, Mean [12]: 431* mm^3
Tumor Volume, individual animal [12]: 94 mm^3 and 385 mm^3 and 407 mm^3 and 442 mm^3 and 530 mm^3 and died and 671 mm^3 and 487 mm^3
% T/C [13]: 48%
% TGI [13]: 52%
Tumor Volume, Mean [13]: 477* mm^3
Tumor Volume, individual animal [13]: 97 mm^3 and 414 mm^3 and 429 mm^3 and 489 mm^3 and 581 mm^3 and died and 780 mm^3 and 549 mm^3
% T/C [14]: 51%
% TGI [14]: 49%
Tumor Volume, Mean [14]: 555* mm^3
Tumor Volume, individual animal [14]: 91 mm^3 and 606 mm^3 and 535 mm^3 and 495 mm^3 and 719 mm^3 and died and 878 mm^3 and 561 mm^3
% T/C [15]: 49%
% TGI [15]: 51%
Tumor Volume, Mean [15]: 589* mm^3
Tumor Volume, individual animal [15]: 89 mm^3 and 623 mm^3 and 569 mm^3 and 550 mm^3 and 766 mm^3 and died and 936 mm^3 and 590 mm^3
% T/C [16]: 47%
% TGI [16]: 53%
Tumor Volume, Mean [16]: 639* mm^3
Tumor Volume, individual animal [16]: 88 mm^3 and 682 mm^3 and 590 mm^3 and 581 mm^3 and 816 mm^3 and died and 1094 mm^3 and 620 mm^3
Tumor Volume, Mean (Day 57, 0.191 mg/kg × 4 IP (Once weekly), group mean): 676 mm^3
Tumor Volume, individual mouse (Day 57, 0.191 mg/kg × 4 IP (Once weekly)): 85 mm^3 and 694 mm^3 and 663 mm^3 and 627 mm^3 and 870 mm^3 and 1141 mm^3 and 650 mm^3
Tumor Volume, Mean (Day 60, 0.191 mg/kg × 4 IP (Once weekly), group mean): 720 mm^3
Tumor Volume, individual mouse (Day 60, 0.191 mg/kg × 4 IP (Once weekly)): 83 mm^3 and 745 mm^3 and 783 mm^3 and 664 mm^3 and 854 mm^3 and 1234 mm^3 and 676 mm^3
Tumor Volume, Mean (Day 64, 0.191 mg/kg × 4 IP (Once weekly), group mean): 747 mm^3
Tumor Volume, individual mouse (Day 64, 0.191 mg/kg × 4 IP (Once weekly)): 82 mm^3 and 765 mm^3 and 788 mm^3 and 702 mm^3 and 920 mm^3 and 1272 mm^3 and 703 mm^3
Tumor Volume, Mean (Day 67, 0.191 mg/kg × 4 IP (Once weekly), group mean): 818 mm^3
Tumor Volume, individual mouse (Day 67, 0.191 mg/kg × 4 IP (Once weekly)): 79 mm^3 and 883 mm^3 and 827 mm^3 and 726 mm^3 and 1070 mm^3 and 1300 mm^3 and 840 mm^3
Tumor Volume, Mean (Day 70, 0.191 mg/kg × 4 IP (Once weekly), group mean): 846 mm^3
Tumor Volume, individual mouse (Day 70, 0.191 mg/kg × 4 IP (Once weekly)): 76 mm^3 and 943 mm^3 and 870 mm^3 and 726 mm^3 and 1090 mm^3 and 1358 mm^3 and 859 mm^3
Tumor Volume, Mean (Day 74, 0.191 mg/kg × 4 IP (Once weekly), group mean): 901 mm^3
Tumor Volume, individual mouse (Day 74, 0.191 mg/kg × 4 IP (Once weekly)): 74 mm^3 and 1012 mm^3 and 909 mm^3 and 856 mm^3 and 1117 mm^3 and 1422 mm^3 and 916 mm^3
Tumor Volume, Mean (Day 78, 0.191 mg/kg × 4 IP (Once weekly), group mean): 931 mm^3
Tumor Volume, individual mouse (Day 78, 0.191 mg/kg × 4 IP (Once weekly)): 74 mm^3 and 1042 mm^3 and 955 mm^3 and 890 mm^3 and 1197 mm^3 and 1431 mm^3 and 928 mm^3
Tumor Volume, Mean (Day 81, 0.191 mg/kg × 4 IP (Once weekly), group mean): 951 mm^3
Tumor Volume, individual mouse (Day 81, 0.191 mg/kg × 4 IP (Once weekly)): 77 mm^3 and 1064 mm^3 and 961 mm^3 and 903 mm^3 and 1197 mm^3 and 1517 mm^3 and 935 mm^3
Tumor Volume, Mean (Day 85, 0.191 mg/kg × 4 IP (Once weekly), group mean): 1002 mm^3
Tumor Volume, individual mouse (Day 85, 0.191 mg/kg × 4 IP (Once weekly)): 77 mm^3 and 1097 mm^3 and 1033 mm^3 and 933 mm^3 and 1331 mm^3 and 1558 mm^3 and 988 mm^3
Tumor Volume, Mean (Day 88, 0.191 mg/kg × 4 IP (Once weekly), group mean): 1032 mm^3
Tumor Volume, individual mouse (Day 88, 0.191 mg/kg × 4 IP (Once weekly)): 74 mm^3 and 1104 mm^3 and 1117 mm^3 and 933 mm^3 and 1346 mm^3 and 1626 mm^3 and 1023 mm^3
Tumor Volume, Mean (Day 91, 0.191 mg/kg × 4 IP (Once weekly), group mean): 1037 mm^3
Tumor Volume, individual mouse (Day 91, 0.191 mg/kg × 4 IP (Once weekly)): 72 mm^3 and 1122 mm^3 and 1130 mm^3 and 933 mm^3 and 1346 mm^3 and 1636 mm^3 and 1023 mm^3
Tumor Volume, Mean (Day 95, 0.191 mg/kg × 4 IP (Once weekly), group mean): 1060 mm^3
Tumor Volume, individual mouse (Day 95, 0.191 mg/kg × 4 IP (Once weekly)): 68 mm^3 and 1192 mm^3 and 1184 mm^3 and 947 mm^3 and 1354 mm^3 and 1646 mm^3 and 1029 mm^3
Tumor Volume, Mean (Day 98, 0.191 mg/kg × 4 IP (Once weekly), group mean): 1101 mm^3
Tumor Volume, individual mouse (Day 98, 0.191 mg/kg × 4 IP (Once weekly)): 68 mm^3 and 1215 mm^3 and 1265 mm^3 and 1061 mm^3 and 1398 mm^3 and 1656 mm^3 and 1043 mm^3
Tumor Volume, Mean (Day 100, 0.191 mg/kg × 4 IP (Once weekly), group mean): 1106 mm^3
Tumor Volume, individual mouse (Day 100, 0.191 mg/kg × 4 IP (Once weekly)): 62 mm^3 and 1254 mm^3 and 1273 mm^3 and 1076 mm^3 and 1444 mm^3 and 1590 mm^3 and 1043 mm^3
